Laboratory results: patent US20260152498A1, “4,5,6,7-TETRAHYDRO-1H-PYRAZOLO[4,3-c]PYRIDINE COMPOUNDS AND DERIVATIVES AS USP1 INHIBITORS” (EXELIXIS, INC., priority 2022, published 2026)

Key:
USP1-UAF1 complex [1] = target: T1, USP1-UAF1 complex (Homo sapiens, UniProt O94782); settings: 1.2 µM
Description: (§1) Biochemical Assay: The compounds were evaluated for their potential to inhibit USP1-UAF1 complex (Boston Biochem, Catalog: E568-050) using a fluorescence-based assay. The final concentrations of USP1-UAF1 complex protein and substrate Ubiquitin-Rhodamine-110 (R&D systems, Catalog U-555-050) used in the assay were 0.45 and 150 nM respectively. 50 mM HEPES pH. 7.5, 100 mM NaCl, 0.5 mM EDTA, 1 mM TCEP, 10% BSA, 0.01% Tween 20 buffer was used in the assay. The total assay volume was 20 μL. […] The final DMSO concentration in the assay was 1%. The compounds were pre-incubated with USP1-UAF1 complex at 25° C. for 15 min. After preincubation, required concentration of substrate was added and incubated at 25° C. for 60 min. Fluorescence at Excitation: 485 nm, Emission: 535 nm was measured in Victor-5 from Perkin Elmer.
(§2) To determine IC50 values, dose response curves were generated by plotting percentage inhibition as a function of inhibitor concentration and the data was fitted to sigmoidal non-linear regression equation (variable slope) using Graph Pad prism software V8.
(§3) The compounds were screened by the above-mentioned assay procedure.

USP1-UAF1 complex [2] = target: T1, USP1-UAF1 complex; assay: biochemical
Description: as §1, §2, §3

T1 sequence (O94782 whole entry): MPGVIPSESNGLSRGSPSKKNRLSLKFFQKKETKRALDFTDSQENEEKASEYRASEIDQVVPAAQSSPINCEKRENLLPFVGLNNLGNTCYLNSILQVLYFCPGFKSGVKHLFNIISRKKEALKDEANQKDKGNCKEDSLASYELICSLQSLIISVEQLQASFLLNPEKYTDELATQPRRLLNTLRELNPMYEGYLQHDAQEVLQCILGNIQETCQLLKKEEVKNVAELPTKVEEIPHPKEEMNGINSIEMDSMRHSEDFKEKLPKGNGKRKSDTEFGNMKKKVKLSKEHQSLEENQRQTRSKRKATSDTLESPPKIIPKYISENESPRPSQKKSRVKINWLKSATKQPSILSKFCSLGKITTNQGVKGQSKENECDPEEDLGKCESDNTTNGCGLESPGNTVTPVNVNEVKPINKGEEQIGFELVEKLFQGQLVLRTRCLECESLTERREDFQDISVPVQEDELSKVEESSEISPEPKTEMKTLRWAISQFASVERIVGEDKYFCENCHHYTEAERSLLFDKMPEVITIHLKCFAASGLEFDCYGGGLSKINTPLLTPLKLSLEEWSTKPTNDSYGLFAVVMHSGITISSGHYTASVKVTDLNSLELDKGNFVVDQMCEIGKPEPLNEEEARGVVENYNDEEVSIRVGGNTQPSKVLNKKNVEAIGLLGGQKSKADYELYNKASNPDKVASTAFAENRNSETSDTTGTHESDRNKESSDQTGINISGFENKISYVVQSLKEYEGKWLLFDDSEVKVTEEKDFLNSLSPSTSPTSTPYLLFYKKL
T1 sequence (Q8TAF3 whole entry partner): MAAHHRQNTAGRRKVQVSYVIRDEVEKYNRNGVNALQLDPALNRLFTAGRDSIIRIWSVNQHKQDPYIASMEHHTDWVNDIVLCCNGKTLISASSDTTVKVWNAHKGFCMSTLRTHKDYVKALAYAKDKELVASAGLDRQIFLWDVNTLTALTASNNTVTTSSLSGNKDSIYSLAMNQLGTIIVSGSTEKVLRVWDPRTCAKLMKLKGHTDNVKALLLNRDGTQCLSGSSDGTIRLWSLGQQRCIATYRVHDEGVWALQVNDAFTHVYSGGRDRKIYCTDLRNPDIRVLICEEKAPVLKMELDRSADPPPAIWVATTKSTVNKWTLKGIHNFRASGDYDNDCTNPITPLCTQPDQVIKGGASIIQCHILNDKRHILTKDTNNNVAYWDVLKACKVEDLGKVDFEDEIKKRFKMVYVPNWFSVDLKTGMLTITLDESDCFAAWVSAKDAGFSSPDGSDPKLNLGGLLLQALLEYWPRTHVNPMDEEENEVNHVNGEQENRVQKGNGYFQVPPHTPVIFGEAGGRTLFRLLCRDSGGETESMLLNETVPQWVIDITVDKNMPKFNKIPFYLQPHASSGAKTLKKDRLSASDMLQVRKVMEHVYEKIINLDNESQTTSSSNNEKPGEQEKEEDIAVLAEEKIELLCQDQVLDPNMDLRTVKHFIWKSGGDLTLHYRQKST

| Structure (SMILES) | inhibition (USP1-UAF1 complex [1]) | IC50 (USP1-UAF1 complex [2]) |
| --- | --- | --- |
| COc1ncnc(C2CC2)c1-c1nn(C(C)C)c2c1CN(c1ccc(-c3nc(C(F)(F)F)cn3C)cn1)CC2 [Compound 29, 3-(4-cyclopropyl-6-methoxypyrimidin-5-yl)-1-isopropyl-5-(5-(1-methyl-4-(trifluoromethyl)-1H-imidazol-2-yl)pyridin-2-yl)-4,5,6,7-tetrahydro-1H-pyrazolo[4,3-c]pyridine] | 90% | > 100 nM |
| COc1cccc(C2CC2)c1-c1nn(C)c2c1CN(c1ccc(-c3nc(C(F)(F)F)cn3C)cc1)CC2 [Compound 2, 3-(2-cyclopropyl-6-methoxyphenyl)-1-methyl-5-(4-(1-methyl-4-(trifluoromethyl)-1H-imidazol-2-yl)phenyl)-4,5,6,7-tetrahydro-1H-pyrazolo[4,3-c]pyridine] |  | < 50 nM |
| COc1ncnc(C2CC2)c1-c1nn(C)c2c1CN(c1csc(-c3nc(C(F)(F)F)cn3C)n1)CC2 [Compound 50, 4-(3-(4-cyclopropyl-6-methoxypyrimidin-5-yl)-1-methyl-1,4,6,7-tetrahydro-5H-pyrazolo[4,3-c]pyridin-5-yl)-2-(1-methyl-4-(trifluoromethyl)-1H-imidazol-2-yl)thiazole] | 20% | > 100 nM |
| COc1ncnc(C2CC2)c1-c1nn(C)c2c1CN(c1ncc(-c3nc(C(F)(F)F)cn3C)cn1)CC2 [Compound 59, 3-(4-cyclopropyl-6-methoxypyrimidin-5-yl)-1-methyl-5-(5-(1-methyl-4-(trifluoromethyl)-1H-imidazol-2-yl)pyrimidin-2-yl)-4,5,6,7-tetrahydro-1H-pyrazolo[4,3-c]pyridine] | 95% | 50 to 100 nM |
| COc1ncnc(C2CC2)c1-c1nn(C)c2c1CN(c1ccc(-c3nc(C(F)(F)F)cn3C)cc1)CC2(C)C [Compound 41, 3-(4-cyclopropyl-6-methoxypyrimidin-5-yl)-1,7,7-trimethyl-5-(4-(1-methyl-4-(trifluoromethyl)-1H-imidazol-2-yl)phenyl)-4,5,6,7-tetrahydro-1H-pyrazolo[4,3-c]pyridine] | 100% | < 50 nM |
| COc1ncccc1-c1ccc(N2CCc3c(c(-c4c(OC)ncnc4C4CC4)nn3C)C2)nc1 [Compound 22, 3-(4-cyclopropyl-6-methoxypyrimidin-5-yl)-5-(2'-methoxy-[3,3′-bipyridin]-6-yl)-1-methyl-4,5,6,7-tetrahydro-1H-pyrazolo[4,3-c]pyridine] | 39% | > 100 nM |
| COc1cc(N2CCc3c(c(-c4c(OC)ncnc4C4CC4)nn3C)C2)ccc1-c1nc(C(F)(F)F)cn1C [Compound 46, 3-(4-cyclopropyl-6-methoxypyrimidin-5-yl)-5-(3-methoxy-4-(1-methyl-4-(trifluoromethyl)-1H-imidazol-2-yl)phenyl)-1-methyl-4,5,6,7-tetrahydro-1H-pyrazolo[4,3-c]pyridine] | 96% | 50 to 100 nM |
| COc1ncnc(C2CC2)c1-c1nn(C)c2c1CN(c1ccc(-c3nc(C(F)(F)F)cn3C3CCC3)cn1)CC2 [Compound 16, 5-(5-(1-cyclobutyl-4-(trifluoromethyl)-1H-imidazol-2-yl)pyridin-2-yl)-3-(4-cyclopropyl-6-methoxypyrimidin-5-yl)-1-methyl-4,5,6,7-tetrahydro-1H-pyrazolo[4,3-c]pyridine] | 99% | < 50 nM |
| COc1ncnc(C2CC2)c1-c1nn(C2CCC2)c2c1CN(c1ccc(-c3nc(C(F)(F)F)cn3C)cn1)CC2 [Compound 35, 1-cyclobutyl-3-(4-cyclopropyl-6-methoxypyrimidin-5-yl)-5-(5-(1-methyl-4-(trifluoromethyl)-1H-imidazol-2-yl)pyridin-2-yl)-4,5,6,7-tetrahydro-1H-pyrazolo[4,3-c]pyridine] | 76% | > 100 nM |
| COc1ncnc(C2CC2)c1-c1nn(C)c2c1CN(c1csc(-c3nc(C(F)(F)F)cn3C)c1)CC2 [Compound 49, 3-(4-cyclopropyl-6-methoxypyrimidin-5-yl)-1-methyl-5-(5-(1-methyl-4-(trifluoromethyl)-1H-imidazol-2-yl)thiophen-3-yl)-4,5,6,7-tetrahydro-1H-pyrazolo[4,3-c]pyridine] | 14% | > 100 nM |
| COc1ncnc(C2CC2)c1-c1nn(C)c2c1CN(c1ccc(-c3nc(C(F)(F)F)cn3C)nc1)CC2C (centres unmarked) [Compound 39, 3-(4-cyclopropyl-6-methoxypyrimidin-5-yl)-1,7-dimethyl-5-(6-(1-methyl-4-(trifluoromethyl)-1H-imidazol-2-yl)pyridin-3-yl)-4,5,6,7-tetrahydro-1H-pyrazolo[4,3-c]pyridine] | 98% | 50 to 100 nM |
| CCn1cc(C(F)(F)F)nc1-c1ccc(N2CCc3c(c(-c4c(OC)ncnc4C4CC4)nn3C)C2)nc1 [Compound 14, 3-(4-cyclopropyl-6-methoxypyrimidin-5-yl)-5-(5-(1-ethyl-4-(trifluoromethyl)-1H-imidazol-2-yl)pyridin-2-yl)-1-methyl-4,5,6,7-tetrahydro-1H-pyrazolo[4,3-c]pyridine] | 99% | 50 to 100 nM |
| COc1ncnc(C2CC2)c1-c1nn(C)c2c1CN(c1ccc(-c3nc(C(F)(F)F)cn3C)cc1)CC2C (centres unmarked) [Compound 38, 3-(4-cyclopropyl-6-methoxypyrimidin-5-yl)-1,7-dimethyl-5-(4-(1-methyl-4-(trifluoromethyl)-1H-imidazol-2-yl)phenyl)-4,5,6,7-tetrahydro-1H-pyrazolo[4,3-c]pyridine] | 99% | < 50 nM |
| COc1ncnc(C2CC2)c1-c1nn(C)c2c1CN(c1ccc(-c3nc(C(F)(F)F)cn3C)c(F)c1)CC2 [Compound 44, 3-(4-cyclopropyl-6-methoxypyrimidin-5-yl)-5-(3-fluoro-4-(1-methyl-4-(trifluoromethyl)-1H-imidazol-2-yl)phenyl)-1-methyl-4,5,6,7-tetrahydro-1H-pyrazolo[4,3-c]pyridine] | 100% | < 50 nM |

Further lines, results first:

| inhibition (USP1-UAF1 complex [1]) | IC50 (USP1-UAF1 complex [2]) | Structure (SMILES) |
| --- | --- | --- |
| 97% | 50 to 100 nM | COc1ncnc(C2CC2)c1-c1nn(C)c2c1CN(c1ccc(-c3nc(C(F)(F)F)cn3C)c(N(C)C)c1)CC2 [Compound 48, 5-(3-(4-cyclopropyl-6-methoxypyrimidin-5-yl)-1-methyl-1,4,6,7-tetrahydro-5H-pyrazolo[4,3-c]pyridin-5-yl)-N,N-dimethyl-2-(1-methyl-4-(trifluoromethyl)-1H-imidazol-2-yl)aniline] |
| 5% | > 100 nM | COc1ncnc(C2CC2)c1-c1nn(C)c2c1CN(c1ccc(-c3nn(C)c4c3CNCC4)cc1)CC2 [Compound 56, 3-(4-cyclopropyl-6-methoxypyrimidin-5-yl)-1-methyl-5-(4-(1-methyl-4,5,6,7-tetrahydro-1H-pyrazolo[4,3-c]pyridin-3-yl)phenyl)-4,5,6,7-tetrahydro-1H-pyrazolo[4,3-c]pyridine] |
| 100% | < 50 nM | COc1ncnc(C2CC2)c1-c1nn(C)c2c1CN(c1ccc(-c3nc(C(F)(F)F)cn3C3CC3)cc1)CC2 [Compound 7, 5-(4-(1-cyclopropyl-4-(trifluoromethyl)-1H-imidazol-2-yl)phenyl)-3-(4-cyclopropyl-6-methoxypyrimidin-5-yl)-1-methyl-4,5,6,7-tetrahydro-1H-pyrazolo[4,3-c]pyridine] |
| 3% | > 100 nM | COc1ncnc(C2CC2)c1-c1nn(C)c2c1CN(c1ccc(-c3c(C)noc3C)cn1)CC2 [Compound 23, 4-(6-(3-(4-cyclopropyl-6-methoxypyrimidin-5-yl)-1-methyl-1,4,6,7-tetrahydro-5H-pyrazolo[4,3-c]pyridin-5-yl)pyridin-3-yl)-3,5-dimethylisoxazole] |
| 97% | < 50 nM | COc1ncnc(C2CC2)c1-c1nn(C)c2c1CN(c1ccc(-c3nc(Cl)cn3C)cc1)CC2 [Compound 21, 5-(4-(4-chloro-1-methyl-1H-imidazol-2-yl)phenyl)-3-(4-cyclopropyl-6-methoxypyrimidin-5-yl)-1-methyl-4,5,6,7-tetrahydro-1H-pyrazolo[4,3-c]pyridine] |
| 86% | > 100 nM | COc1ncnc(C2CC2)c1-c1nn(C2CC2)c2c1CN(c1ccc(-c3nc(C(F)(F)F)cn3C)nc1)CC2 [Compound 31, 1-cyclopropyl-3-(4-cyclopropyl-6-methoxypyrimidin-5-yl)-5-(6-(1-methyl-4-(trifluoromethyl)-1H-imidazol-2-yl)pyridin-3-yl)-4,5,6,7-tetrahydro-1H-pyrazolo[4,3-c]pyridine] |
| 98% | 50 to 100 nM | COc1ncnc(C2CC2)c1-c1nn(C)c2c1CN(c1ccc(-c3nc(C(F)(F)F)cn3C)cc1)CC2 [Compound 1, 3-(4-cyclopropyl-6-methoxypyrimidin-5-yl)-1-methyl-5-(4-(1-methyl-4-(trifluoromethyl)-1H-imidazol-2-yl)phenyl)-4,5,6,7-tetrahydro-1H-pyrazolo[4,3-c]pyridine] |
| 96% | 50 to 100 nM | COc1ncnc(C2CC2)c1-c1nn(C)c2c1CN(c1ccc(-c3nc(C(F)(F)F)cn3C(C)C)cn1)CC2 [Compound 15, 3-(4-cyclopropyl-6-methoxypyrimidin-5-yl)-5-(5-(1-isopropyl-4-(trifluoromethyl)-1H-imidazol-2-yl)pyridin-2-yl)-1-methyl-4,5,6,7-tetrahydro-1H-pyrazolo[4,3-c]pyridine] |
| 92% | > 100 nM | CCn1nc(-c2c(OC)ncnc2C2CC2)c2c1CCN(c1ccc(-c3nc(C(F)(F)F)cn3C)nc1)C2 [Compound 25, 3-(4-cyclopropyl-6-methoxypyrimidin-5-yl)-1-ethyl-5-(6-(1-methyl-4-(trifluoromethyl)-1H-imidazol-2-yl)pyridin-3-yl)-4,5,6,7-tetrahydro-1H-pyrazolo[4,3-c]pyridine] |
| 86% | > 100 nM | COc1ncnc(C2CC2)c1-c1nn(C)c2c1CN(c1ccc(-c3nc(C(F)(F)F)cn3C3CN(C)C3)cc1)CC2 [Compound 11, 3-(4-cyclopropyl-6-methoxypyrimidin-5-yl)-1-methyl-5-(4-(1-(1-methylazetidin-3-yl)-4-(trifluoromethyl)-1H-imidazol-2-yl)phenyl)-4,5,6,7-tetrahydro-1H-pyrazolo[4,3-c]pyridine] |
